# Test results: ChEMBL document CHEMBL1773056 (Bioorg Med Chem Lett, 2011)
# Species on record: Mus musculus
# Assay: not given
# Assay type: functional, Brain
# Conditions: not given
row,SMILES,inhibition (INH) [%]
1,O=C1CCc2ccc(OCCCCN3CCN(c4cccc5ccccc45)CC3)nc2N1 [PF-00217830],46

# Test system: not listed separately
# Assay: in vivo
# Conditions: rhesus monkey, po, 3 mg/kg
row,bioavailability [%],SMILES
1,20.5,O=C1CCc2ccc(OCCCCN3CCN(c4cccc5ccccc45)CC3)nc2N1 [PF-00217830]

# Test system: not listed separately
# Assay: in vivo
# Conditions: rat, po, 3 mg/kg
row,Tmax [h],SMILES
1,1.2,O=C1CCc2ccc(OCCCCN3CCN(c4cccc5ccccc45)CC3)nc2N1 [PF-00217830]

# Test system: not listed separately
# Assay: in vivo
# Conditions: rat, iv, 1 mg/kg
row,Vd [L/kg],SMILES
1,1.1,O=C1CCc2ccc(OCCCCN3CCN(c4cccc5ccccc45)CC3)nc2N1 [PF-00217830]

# Test system: not listed separately
# Assay: in vivo
# Conditions: rat, iv, 1 mg/kg
# Remark: another data set of the same source
row,half-life [h],SMILES
1,6.8,O=C1CCc2ccc(OCCCCN3CCN(c4cccc5ccccc45)CC3)nc2N1 [PF-00217830]

# Test system: not listed separately
# Assay: in vivo
# Conditions: rat, po
row,bioavailability [%],SMILES
1,6,O=C1CCc2ccc(CCCCCN3CCN(c4cccc(Cl)c4Cl)CC3)nc2N1
2,23,O=C1CCc2ccc(OCCCCN3CCN(c4cccc(Cl)c4Cl)CC3)nc2N1

# Target: T1, 5-hydroxytryptamine receptor 1A (Homo sapiens, UniProt P08908)
# T1 sequence (P08908 whole entry): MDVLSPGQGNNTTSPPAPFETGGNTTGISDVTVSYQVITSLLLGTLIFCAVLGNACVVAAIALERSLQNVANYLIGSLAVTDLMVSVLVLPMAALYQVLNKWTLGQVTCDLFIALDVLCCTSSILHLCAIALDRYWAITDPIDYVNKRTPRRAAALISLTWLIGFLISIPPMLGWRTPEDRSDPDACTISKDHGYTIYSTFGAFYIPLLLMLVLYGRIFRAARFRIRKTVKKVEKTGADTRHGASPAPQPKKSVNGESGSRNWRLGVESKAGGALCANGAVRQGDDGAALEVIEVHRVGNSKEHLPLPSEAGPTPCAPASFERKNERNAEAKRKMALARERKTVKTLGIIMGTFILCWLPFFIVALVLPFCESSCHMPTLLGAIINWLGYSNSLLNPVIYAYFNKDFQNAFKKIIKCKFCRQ
# Assay: biochemical
# Assay type: cell-based, HeLa
# Conditions: not given
row,Ki [nM],SMILES
1,14,O=c1ccc2ccc(OCCCCN3CCN(c4cccc(Cl)c4Cl)CC3)nc2[nH]1
2,52.7,O=c1ccc2cnc(OCCCCN3CCN(c4cccc(Cl)c4Cl)CC3)nc2[nH]1
3,1.7,O=C1CCc2ccc(OCCCCN3CCN(c4cccc(F)c4Cl)CC3)nc2N1
4,1.2,O=C1CCc2ccc(OCCCCN3CCN(c4cccc(Cl)c4F)CC3)nc2N1
5,28,O=C1CCc2ccc(OCCCCN3CCN(c4cccc5c4CCCC5)CC3)nc2N1
6,0.78,O=C1CCc2ccc(OCCCCN3CCN(c4cccc5c4CCCO5)CC3)nc2N1
7,3.3,O=C1CCc2ccc(OCCCCN3CCN(c4cc(F)cc5ccccc45)CC3)nc2N1
8,1.1,O=C1CCc2ccc(OCCCCN3CCN(c4cccc5ccc(F)cc45)CC3)nc2N1
9,0.77,O=C1CCc2ccc(OCCCCN3CCN(c4cccc5cccc(F)c45)CC3)nc2N1
10,3.7,O=C1CCc2ccc(OCCCCN3CCN(c4cccc5ccccc45)CC3)nc2N1 [PF-00217830]

# More lines, now with the values behind:
row,SMILES,Ki [nM]
1,O=C1CCc2ccc(CCCCCN3CCN(c4cccc(Cl)c4Cl)CC3)nc2N1,11.4
2,O=C1CCc2ccc(OCCCCN3CCN(c4cccc(Cl)c4Cl)CC3)nc2N1,17.7
3,O=c1ccc2cnc(OCCCCN3CCN(c4cccc(Cl)c4Cl)CC3)cc2[nH]1,40.7
4,O=C1CCc2ccc(OCCCCN3CCN(c4ccccc4Cl)CC3)nc2N1,4.6
5,O=C1CCc2ccc(OCCCCN3CCN(c4cccc(Cl)c4C(F)(F)F)CC3)nc2N1,3.5
6,O=C1CCc2ccc(OCCCCN3CCN(c4cccc5c4CCC5)CC3)nc2N1,6.3
7,O=C1CCc2ccc(OCCCCN3CCN(c4cccc5c4OCCC5)CC3)nc2N1,1.1
8,O=C1CCc2ccc(OCCCCN3CCN(c4c(F)ccc5ccccc45)CC3)nc2N1,0.84
9,O=C1CCc2ccc(OCCCCN3CCN(c4cccc5c(F)cccc45)CC3)nc2N1,3
10,O=C1CCc2ccc(OCCCCN3CCN(c4cccc5cc(F)ccc45)CC3)nc2N1,1.2

# Test system: not listed separately
# Assay: in vivo
# Conditions: rhesus monkey, po, 3 mg/kg
# Remark: another data set of the same source
row,Cmax [ng/mL],SMILES
1,96,O=C1CCc2ccc(OCCCCN3CCN(c4cccc5ccccc45)CC3)nc2N1 [PF-00217830]

# Test system: not listed separately
# Assay: in vivo
# Conditions: rat, iv, 1 mg/kg
# Remark: another data set of the same source
row,clearance [mL/min/kg],SMILES
1,14.9,O=C1CCc2ccc(OCCCCN3CCN(c4cccc5ccccc45)CC3)nc2N1 [PF-00217830]

# Test system: not listed separately
# Assay: in vivo
# Conditions: rhesus monkey, po, 3 mg/kg
# Remark: another data set of the same source
row,Tmax [h],SMILES
1,5,O=C1CCc2ccc(OCCCCN3CCN(c4cccc5ccccc45)CC3)nc2N1 [PF-00217830]

# Species on record: Mus musculus
# Assay: not given
# Conditions: in vivo
row,MED [mg/kg],SMILES
1,> 30,O=c1ccc2ccc(OCCCCN3CCN(c4cccc5ccccc45)CC3)nc2[nH]1
2,> 10,O=C1CCc2ccc(OCCCCN3CCN(c4cccc5ccccc45)CC3)nc2N1 [PF-00217830]

# Test system: not listed separately
# Assay: in vivo
# Conditions: rat, po, 3 mg/kg
# Remark: another data set of the same source
row,bioavailability [%],SMILES
1,19.2,O=C1CCc2ccc(OCCCCN3CCN(c4cccc5ccccc45)CC3)nc2N1 [PF-00217830]

# Species on record: Rattus norvegicus
# Assay: animal or person
# Assay type: functional
# Conditions: po
row,SMILES,inhibition in vivo at 0.3 mg/kg [%]
1,O=C1CCc2ccc(OCCCCN3CCN(c4cccc5ccccc45)CC3)nc2N1 [PF-00217830],31

# Species on record: Mus musculus
# Assay: not given
# Assay type: functional, Brain
# Conditions: not given
# Remark: another data set of the same source
row,SMILES,inhibition (INH) [%]
1,O=c1ccc2ccc(OCCCCN3CCN(c4cccc5ccccc45)CC3)nc2[nH]1,45

# Target: D(2) dopamine receptor (Homo sapiens, UniProt P14416)
# Assay: biochemical
# Assay type: cell-based, CHO
# Conditions: not given
# Chain of D(2) dopamine receptor (P14416 whole entry): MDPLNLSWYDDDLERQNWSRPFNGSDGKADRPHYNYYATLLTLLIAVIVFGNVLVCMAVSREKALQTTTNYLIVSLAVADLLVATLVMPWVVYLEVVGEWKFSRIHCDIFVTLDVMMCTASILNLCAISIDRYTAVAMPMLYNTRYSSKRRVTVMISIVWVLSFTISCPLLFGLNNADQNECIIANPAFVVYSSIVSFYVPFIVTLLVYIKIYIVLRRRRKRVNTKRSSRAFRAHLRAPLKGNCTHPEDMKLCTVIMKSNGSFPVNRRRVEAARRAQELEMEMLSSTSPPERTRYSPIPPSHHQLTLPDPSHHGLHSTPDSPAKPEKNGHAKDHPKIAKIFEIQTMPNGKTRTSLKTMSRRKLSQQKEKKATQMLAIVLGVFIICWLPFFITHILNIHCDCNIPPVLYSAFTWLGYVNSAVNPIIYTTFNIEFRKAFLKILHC
row,Ki [nM],SMILES
1,1,O=C1CCc2ccc(OCCCCN3CCN(c4cccc5c4CCCO5)CC3)nc2N1
2,1.2,O=C1CCc2ccc(OCCCCN3CCN(c4cccc5ccc(F)cc45)CC3)nc2N1
3,1.7,O=C1CCc2ccc(OCCCCN3CCN(c4cccc5cccc(F)c45)CC3)nc2N1

# Second part, the compound before the results:
row,SMILES,Ki [nM]
1,O=C1CCc2ccc(OCCCCN3CCN(c4cccc(Cl)c4C(F)(F)F)CC3)nc2N1,3
2,O=C1CCc2ccc(OCCCCN3CCN(c4cccc5c4OCCC5)CC3)nc2N1,0.71

# Test system: not listed separately
# Assay: in vivo
# Conditions: rhesus monkey, iv, 1 mg/kg
row,Vd [L/kg],SMILES
1,2.6,O=C1CCc2ccc(OCCCCN3CCN(c4cccc5ccccc45)CC3)nc2N1 [PF-00217830]

# Species on record: Rattus norvegicus
# Assay: animal or person
# Assay type: functional
# Conditions: po
# Remark: another data set of the same source
row,SMILES,inhibition in vivo at 1 mg/kg [%]
1,O=C1CCc2ccc(OCCCCN3CCN(c4cccc5ccccc45)CC3)nc2N1 [PF-00217830],78

# Test system: not listed separately
# Assay: in vivo
# Conditions: rhesus monkey, iv, 1 mg/kg
# Remark: another data set of the same source
row,clearance [mL/min/kg],SMILES
1,5.8,O=C1CCc2ccc(OCCCCN3CCN(c4cccc5ccccc45)CC3)nc2N1 [PF-00217830]

# Test system: not listed separately
# Assay: in vivo
# Conditions: rat, po, 3 mg/kg
# Remark: another data set of the same source
row,Cmax [ng/mL],SMILES
1,202,O=C1CCc2ccc(OCCCCN3CCN(c4cccc5ccccc45)CC3)nc2N1 [PF-00217830]

# Target: 5-hydroxytryptamine receptor 2A (Homo sapiens, UniProt P28223)
# Assay: not given
# Conditions: not given
# Chain of 5-hydroxytryptamine receptor 2A (P28223 whole entry): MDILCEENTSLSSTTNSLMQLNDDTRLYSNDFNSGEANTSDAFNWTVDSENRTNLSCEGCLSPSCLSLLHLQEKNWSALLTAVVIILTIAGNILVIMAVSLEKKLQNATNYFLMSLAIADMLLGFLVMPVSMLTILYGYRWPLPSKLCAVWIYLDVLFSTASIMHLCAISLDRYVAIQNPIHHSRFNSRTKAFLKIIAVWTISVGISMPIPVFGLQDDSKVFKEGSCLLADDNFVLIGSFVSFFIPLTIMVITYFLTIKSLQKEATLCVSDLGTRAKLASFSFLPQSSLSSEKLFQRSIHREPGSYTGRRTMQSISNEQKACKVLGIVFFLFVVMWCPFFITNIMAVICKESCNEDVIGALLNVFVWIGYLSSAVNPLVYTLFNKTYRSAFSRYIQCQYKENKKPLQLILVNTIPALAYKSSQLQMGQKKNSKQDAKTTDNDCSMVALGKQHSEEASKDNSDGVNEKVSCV
row,Ki [nM],SMILES
1,1.6,O=c1ccc2ccc(OCCCCN3CCN(c4cccc(Cl)c4Cl)CC3)nc2[nH]1
2,3.2,O=c1ccc2cnc(OCCCCN3CCN(c4cccc(Cl)c4Cl)CC3)nc2[nH]1
3,31.2,O=C1CCc2ccc(OCCCCN3CCN(c4cccc(F)c4Cl)CC3)nc2N1
4,10.4,O=C1CCc2ccc(OCCCCN3CCN(c4cccc(Cl)c4F)CC3)nc2N1
5,12,O=C1CCc2ccc(OCCCCN3CCN(c4cccc(C(F)(F)F)c4Cl)CC3)nc2N1
6,0.09,O=C1CCc2ccc(OCCCCN3CCN(c4cccc5c4CCCC5)CC3)nc2N1
7,1.3,O=C1CCc2ccc(OCCCCN3CCN(c4cccc5c4CCCO5)CC3)nc2N1
8,1.9,O=C1CCc2ccc(OCCCCN3CCN(c4cc(F)cc5ccccc45)CC3)nc2N1
9,11.7,O=C1CCc2ccc(OCCCCN3CCN(c4ccc(F)c5ccccc45)CC3)nc2N1
10,0.28,O=C1CCc2ccc(OCCCCN3CCN(c4cccc5ccc(F)cc45)CC3)nc2N1
11,0.67,O=C1CCc2ccc(OCCCCN3CCN(c4cccc5cccc(F)c45)CC3)nc2N1
12,0.14,O=C1CCc2ccc(OCCCCN3CCN(c4cccc5ccccc45)CC3)nc2N1 [PF-00217830]

# Continued, compound first:
row,SMILES,Ki [nM]
1,O=C1CCc2ccc(CCCCCN3CCN(c4cccc(Cl)c4Cl)CC3)nc2N1,0.79
2,O=C1CCc2ccc(OCCCCN3CCN(c4cccc(Cl)c4Cl)CC3)nc2N1,0.13
3,O=c1ccc2cnc(OCCCCN3CCN(c4cccc(Cl)c4Cl)CC3)cc2[nH]1,2.9
4,O=C1CCc2ccc(OCCCCN3CCN(c4ccccc4Cl)CC3)nc2N1,15.9
5,Cc1cccc(N2CCN(CCCCOc3ccc4c(n3)NC(=O)CC4)CC2)c1Cl,0.5
6,Cc1ccccc1N1CCN(CCCCOc2ccc3c(n2)NC(=O)CC3)CC1,50.9
7,Cc1cccc(N2CCN(CCCCOc3ccc4c(n3)NC(=O)CC4)CC2)c1C,0.35
8,Cc1c(Cl)cccc1N1CCN(CCCCOc2ccc3c(n2)NC(=O)CC3)CC1,1.5
9,O=C1CCc2ccc(OCCCCN3CCN(c4cccc(Cl)c4C(F)(F)F)CC3)nc2N1,1.4
10,O=C1CCc2ccc(OCCCCN3CCN(c4cccc5c4CCC5)CC3)nc2N1,0.16
11,O=C1CCc2ccc(OCCCCN3CCN(c4cccc5c4OCCC5)CC3)nc2N1,0.19
12,O=C1CCc2ccc(OCCCCN3CCN(c4c(F)ccc5ccccc45)CC3)nc2N1,6.7
13,O=C1CCc2ccc(OCCCCN3CCN(c4cccc5c(F)cccc45)CC3)nc2N1,3.3
14,O=C1CCc2ccc(OCCCCN3CCN(c4cccc5cc(F)ccc45)CC3)nc2N1,3.5

# Species on record: Rattus norvegicus
# Assay: not given
# Assay type: functional
# Conditions: not given
row,SMILES,inhibition (INH) [%]
1,O=C1CCc2ccc(OCCCCN3CCN(c4cccc5ccccc45)CC3)nc2N1 [PF-00217830],78

# Test system: not listed separately
# Assay: in vivo
# Conditions: rhesus monkey, iv, 1 mg/kg
# Remark: another data set of the same source
row,half-life [h],SMILES
1,13.6,O=C1CCc2ccc(OCCCCN3CCN(c4cccc5ccccc45)CC3)nc2N1 [PF-00217830]

# Species on record: Mus musculus
# Assay: animal or person
# Conditions: po, read-out: MED
row,SMILES,minimal effective dose [mg/kg]
1,O=c1ccc2ccc(OCCCCN3CCN(c4cccc5ccccc45)CC3)nc2[nH]1,1
2,O=C1CCc2ccc(OCCCCN3CCN(c4cccc5ccccc45)CC3)nc2N1 [PF-00217830],0.3
